Reference: US20220380338A1, “CYCLOALKYL 3-OXOPIPERAZINE CARBOXAMIDES AND CYCLOHETEROALKYL 3-OXOPIPERAZINE CARBOXAMIDES AS NAV1.8 INHIBITORS” (Merck Sharp & Dohme LLC, priority 2021, published 2022)

Target: T1, human NaV1.8 (Homo sapiens, UniProt Q9Y5Y9)
T1 construct: expressed in transfected cells
Assay: Nav1.8 Qube® Assay (automated 384-well patch-clamp, inhibition of sodium current)
Format: cell-based
Conditions: human NaV1.8 channels stably expressed in HEK 293 cells, room temperature
Experimental: Compounds were tested on human NaV1.8 and NaV1.5 channels stably expressed in human embryo kidney (HEK) 293 cells. Sodium current measurements on Qube® were conducted as follows: automated 384-well patch-clamp assays on the Qube® platform (Sophion Biosciences) were used to measure the inhibition of sodium flow through human NaV1.8 and NaV1.5 channels. Whole-cell voltage-clamp recordings were performed in QChips® (Sophion Biosciences) at room temperature. NaV1.8 current measurements on Qube® were obtained as follows: NaV1.8 currents were elicited with a 10 second 1 Hertz (Hz) pulse train from a holding potential of −90 millivolts (mV), delivered to the cells once per minute in the control condition (DMSO only) and after compound addition. The 1 hertz pulse train stimulation consisted of ten test pulses to 10 millivolt (mV) for 20 milliseconds (ms), each of which was followed by a 980 millisecond repolarization to −67 millivolts. At the end of the 10 second pulse train stimulation, a 5 second hyperpolarization step to −100 millivolt (mV) was used to recover NaV1.8 from fast inactivation. The peak currents elicited by the 1st and 10th test pulses were used to determine IC50 values for resting inhibition and inactivated state inhibition. NaV1.5 current measurements on Qube® were obtained as follows: NaV1.5 currents were elicited with a 20 second 3 Hertz pulse train in the control condition (DMSO only) and after compound addition. The pulse train consisted of sixty 20 millisecond test pulses to 0 millivolt from a holding potential of −80 millivolt (mV). The average peak currents elicited by the last 3 test pulses were used to determine IC50 values for NaV1.5 inhibition.
The following buffers were used for the Qube® recordings: External buffer for NaV1.8 Qube® recording: 150 NaCl, 2 CaCl2, 5 KCl, 1 Mg Cl2, 10 HEPES, 12 Dextrose; External buffer for Qube® NaV1.5 recording: 120 N-Methyl-D-Glucamine, 40 NaCl, 1 KCl, 2.7 CaCl2, 5 HEPES, 0.5 MgCl2; and Internal buffer for Qube® recording: 120 CsF, 30 CsCl, 10 EGTA, 5 HEPES, 5 NaF, 2 MgCl2.
For all Qube® experiments offline analysis was used to determine percent inhibition as a function of drug concentration. IC50 values were determined by fitting to the Hill equation.

T1 sequence (Q9Y5Y9 whole entry): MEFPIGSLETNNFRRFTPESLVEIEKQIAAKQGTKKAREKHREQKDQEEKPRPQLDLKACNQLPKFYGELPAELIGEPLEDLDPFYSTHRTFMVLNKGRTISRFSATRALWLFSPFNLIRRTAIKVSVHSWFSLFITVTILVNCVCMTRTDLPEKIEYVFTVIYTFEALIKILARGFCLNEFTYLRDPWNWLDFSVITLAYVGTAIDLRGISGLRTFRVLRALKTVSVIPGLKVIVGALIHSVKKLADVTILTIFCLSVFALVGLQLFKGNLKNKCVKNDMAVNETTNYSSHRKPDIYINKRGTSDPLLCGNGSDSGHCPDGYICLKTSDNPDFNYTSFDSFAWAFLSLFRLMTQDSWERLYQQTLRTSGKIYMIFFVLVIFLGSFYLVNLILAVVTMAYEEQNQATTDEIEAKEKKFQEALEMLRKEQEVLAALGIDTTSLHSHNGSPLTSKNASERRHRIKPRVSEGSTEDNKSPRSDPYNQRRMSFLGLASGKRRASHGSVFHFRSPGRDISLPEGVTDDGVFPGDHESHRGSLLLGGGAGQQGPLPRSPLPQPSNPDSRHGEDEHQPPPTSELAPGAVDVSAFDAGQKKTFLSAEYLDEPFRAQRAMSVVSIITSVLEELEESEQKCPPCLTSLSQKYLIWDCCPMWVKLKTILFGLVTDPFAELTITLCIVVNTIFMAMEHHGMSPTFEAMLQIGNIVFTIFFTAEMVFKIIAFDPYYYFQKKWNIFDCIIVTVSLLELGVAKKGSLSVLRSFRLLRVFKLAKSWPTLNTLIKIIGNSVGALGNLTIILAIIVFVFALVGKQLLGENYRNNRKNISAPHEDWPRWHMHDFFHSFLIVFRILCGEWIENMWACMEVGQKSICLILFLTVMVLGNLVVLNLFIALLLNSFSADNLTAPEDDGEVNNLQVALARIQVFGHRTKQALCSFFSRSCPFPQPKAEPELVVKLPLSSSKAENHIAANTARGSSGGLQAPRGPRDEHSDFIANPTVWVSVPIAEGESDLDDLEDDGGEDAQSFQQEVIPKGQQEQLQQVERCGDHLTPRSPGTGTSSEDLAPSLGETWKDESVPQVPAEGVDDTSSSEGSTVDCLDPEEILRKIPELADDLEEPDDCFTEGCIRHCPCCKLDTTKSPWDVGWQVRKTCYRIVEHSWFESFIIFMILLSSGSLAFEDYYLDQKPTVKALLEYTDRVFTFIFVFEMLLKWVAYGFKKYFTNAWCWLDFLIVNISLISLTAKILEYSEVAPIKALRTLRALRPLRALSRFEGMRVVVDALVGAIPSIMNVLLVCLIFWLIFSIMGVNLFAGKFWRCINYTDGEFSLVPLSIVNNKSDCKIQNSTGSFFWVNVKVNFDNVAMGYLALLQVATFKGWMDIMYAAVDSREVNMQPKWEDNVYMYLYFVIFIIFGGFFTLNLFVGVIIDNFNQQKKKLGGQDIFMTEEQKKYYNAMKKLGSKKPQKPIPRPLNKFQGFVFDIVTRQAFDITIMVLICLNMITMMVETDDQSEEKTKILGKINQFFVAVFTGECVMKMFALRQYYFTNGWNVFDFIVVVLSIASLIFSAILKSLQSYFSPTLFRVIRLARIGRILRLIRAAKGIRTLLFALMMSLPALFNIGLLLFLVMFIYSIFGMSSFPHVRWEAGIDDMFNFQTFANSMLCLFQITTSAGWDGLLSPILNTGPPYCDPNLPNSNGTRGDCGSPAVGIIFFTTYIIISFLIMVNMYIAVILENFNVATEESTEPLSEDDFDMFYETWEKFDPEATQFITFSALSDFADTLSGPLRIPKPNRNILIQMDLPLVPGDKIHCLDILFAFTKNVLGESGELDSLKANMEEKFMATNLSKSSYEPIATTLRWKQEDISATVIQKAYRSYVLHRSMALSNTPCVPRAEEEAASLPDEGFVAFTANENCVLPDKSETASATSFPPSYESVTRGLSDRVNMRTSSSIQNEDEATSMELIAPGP

Compound | IC50 [µM]
C[C@@H]1C(=O)NCCN1C(=O)NC(c1ccc(F)c(Cl)c1F)[C@@H]1C[C@@H]2[C@H](C1)C2(F)F (single isomer, unassigned) [Example 11A, (R)-N-((R or S)-(3-chloro-2,4-difluoro-phenyl)((1R,3s,5S)-6,6-difluoro-bicyclo[3.1.0]hexan-3-yl)methyl)-2-methyl-3-oxo-piperazine-1-carboxamide] | 0.87
C[C@@H]1C(=O)NCCN1C(=O)NC(c1ccc(F)c(Cl)c1F)[C@@H]1C[C@@H]2[C@H](C1)C2(F)F (single isomer, unassigned) [Example 11B, (R)-N-((S or R)-(3-chloro-2,4-difluoro-phenyl)((1R,3s,5S)-6,6-difluoro-bicyclo[3.1.0]hexan-3-yl)methyl)-2-methyl-3-oxo-piperazine-1-carboxamide] | 0.00414
O=C1CN(C(=O)NC(c2ccc(F)c(Cl)c2)C23CCC(C(F)(F)F)(CC2)CC3)CCN1 (single isomer, unassigned) [Example 12A, N-((R or S)-(3-chloro-4-fluoro-phenyl)(4-(trifluoro-methyl)bicyclo[2.2.2]octan-1-yl)methyl)-3-oxopiperazine-1-carboxamide] | 0.343
O=C1CN(C(=O)NC(c2ccc(F)c(Cl)c2)C23CCC(C(F)(F)F)(CC2)CC3)CCN1 (single isomer, unassigned) [Example 12B, N-((S or R)-(3-chloro-4-fluoro-phenyl)(4-(trifluoro-methyl)bicyclo[2.2.2]octan-1-yl)methyl)-3-oxopiperazine-1-carboxamide] | 0.0115
C[C@@H]1C(=O)NCCN1C(=O)NC(c1ccc(F)c(Cl)c1F)C1CCC(F)(F)CC1 (single isomer, unassigned) [Example 13A, (2R)-N-((R or S)-(3-chloro-2,4-difluoro-phenyl)(4,4-difluoro-cyclohexyl)methyl)-2-methyl-3-oxo-piperazine-1-carboxamide] | 0.0134
C[C@@H]1C(=O)NCCN1C(=O)NC(c1ccc(F)c(Cl)c1F)C1CCC(F)(F)CC1 (single isomer, unassigned) [Example 13B, (2R)-N-((S or R)-(3-chloro-2,4-difluoro-phenyl)(4,4-difluoro-cyclohexyl)methyl)-2-methyl-3-oxo-piperazine-1-carboxamide] | 0.726
C[C@@H]1C(=O)NCCN1C(=O)NC(c1ccc(F)c(Cl)c1)C1CCC(F)(F)CC1 (single isomer, unassigned) [Example 14A, (2R)-N-((R or S)-(3-chloro-4-fluoro-phenyl)(4,4-difluoro-cyclohexyl)methyl)-2-methyl-3-oxo-piperazine-1-carboxamide] | 0.0185
C[C@@H]1C(=O)NCCN1C(=O)NC(c1ccc(F)c(Cl)c1)C1CCC(F)(F)CC1 (single isomer, unassigned) [Example 14B, (2R)-N-((S or R)-(3-chloro-4-fluoro-phenyl)(4,4-difluoro-cyclohexyl)methyl)-2-methyl-3-oxo-piperazine-1-carboxamide] | 0.359
C[C@@H]1C(=O)NCCN1C(=O)NC(c1ccc(F)c(Cl)c1)C1CCN(CC(F)(F)F)CC1 (single isomer, unassigned) [Example 15A] | 0.0283
C[C@@H]1C(=O)NCCN1C(=O)NC(c1ccc(F)c(Cl)c1)C1CCN(CC(F)(F)F)CC1 (single isomer, unassigned) [Example 15B] | 0.553
C[C@@H]1C(=O)NCCN1C(=O)NC(c1ccc(Cl)cc1)C1CCN(CC(F)(F)F)CC1 (single isomer, unassigned) [Example 16A, (2R)-N-((R or S)-(4-chlorophenyl)(1-(2,2,2-trifluoroethyl)piperidin-4-yl)methyl)-2-methyl-3-oxopiperazine-1-carboxamide] | 0.366
C[C@@H]1C(=O)NCCN1C(=O)NC(c1ccc(Cl)cc1)C1CCN(CC(F)(F)F)CC1 (single isomer, unassigned) [Example 16B, (2R)-N-((S or R)-(4-chlorophenyl)(1-(2,2,2-trifluoroethyl)piperidin-4-yl)methyl)-2-methyl-3-oxopiperazine-1-carboxamide] | 0.936
O=C1CN(C(=O)NC(c2ccc(F)c(Cl)c2)C2CCN(CC(F)(F)F)CC2)CCN1 (single isomer, unassigned) [Example 17A, N-((R or S)-(3-chloro-4-flurophenyl)(1-(2,2,2-trifluoroethyl)piperidin-4-yl)methyl)-3-oxopiperazine-1-carboxamide] | 1.63
O=C1CN(C(=O)NC(c2ccc(F)c(Cl)c2)C2CCN(CC(F)(F)F)CC2)CCN1 (single isomer, unassigned) [Example 17B, N-((S or R)-(3-chloro-4-fluorophenyl)(1-(2,2,2-trifluoroethyl)piperidin-4-yl)methyl)-3-oxopiperazine-1-carboxamide] | 0.136
CC(N1CCC(C(NC(=O)N2CCNC(=O)[C@H]2C)c2ccc(F)c(Cl)c2)CC1)C(F)(F)F (single isomer, unassigned) [Example 18A] | 0.0041
CC(N1CCC(C(NC(=O)N2CCNC(=O)[C@H]2C)c2ccc(F)c(Cl)c2)CC1)C(F)(F)F (single isomer, unassigned) [Example 18B] | 0.00687
CC(N1CCC(C(NC(=O)N2CCNC(=O)[C@H]2C)c2ccc(F)c(Cl)c2)CC1)C(F)(F)F (single isomer, unassigned) [Example 18C] | 0.0916
CC(N1CCC(C(NC(=O)N2CCNC(=O)[C@H]2C)c2ccc(F)c(Cl)c2)CC1)C(F)(F)F (single isomer, unassigned) [Example 18D] | 0.0835
C[C@@H]1C(=O)NCCN1C(=O)NC(c1ccc(F)c(Cl)c1)C1CCC2(CC1)CC2(F)F (single isomer, unassigned) [Example 19A] | 0.00575
C[C@@H]1C(=O)NCCN1C(=O)NC(c1ccc(F)c(Cl)c1)C1CCC2(CC1)CC2(F)F (single isomer, unassigned) [Example 19B] | 0.00323
C[C@@H]1C(=O)NCCN1C(=O)NC(c1ccc(F)c(Cl)c1)C1CCC2(CC1)CC2(F)F (single isomer, unassigned) [Example 19C] | 0.0157
C[C@@H]1C(=O)NCCN1C(=O)NC(c1ccc(F)c(Cl)c1)C1CCC2(CC1)CC2(F)F (single isomer, unassigned) [Example 19D] | 0.01
C[C@@H]1C(=O)NCCN1C(=O)NC(c1ccc(F)c(Cl)c1F)C1CC(C(F)(F)F)C1 (single isomer, unassigned) [Example 20A] | 0.00137
C[C@@H]1C(=O)NCCN1C(=O)NC(c1ccc(F)c(Cl)c1F)C1CC(C(F)(F)F)C1 (single isomer, unassigned) [Example 20C] | 0.00902
C[C@@H]1C(=O)NCCN1C(=O)NC(c1ccc(F)c(Cl)c1F)C1CC(C(F)(F)F)C1 (single isomer, unassigned) [Example 20D] | 0.116
C[C@@H]1C(=O)NCCN1C(=O)NC(c1ccc(F)c(Cl)c1F)C1CC(C2CC2)C1 (single isomer, unassigned) [Example 21A, (2R)-N-((R or S)-(3-chloro-2,4-difluoro-phenyl)(trans or cis-3-cyclopropylcyclobutyl)methyl)-2-methyl-3-oxopiperazine-1-carboxamide] | 0.00108
C[C@@H]1C(=O)NCCN1C(=O)NC(c1ccc(F)c(Cl)c1F)C1CC(C2CC2)C1 (single isomer, unassigned) [Example 21B, (2R)-N-((R or S)-(3-chloro-2,4-difluoro-phenyl)(cis or trans-3-cyclopropylcyclobutyl)methyl)-2-methyl-3-oxopiperazine-1-carboxamide] | 0.00287
C[C@@H]1C(=O)NCCN1C(=O)NC(c1ccc(F)c(Cl)c1F)C1CC(C2CC2)C1 (single isomer, unassigned) [Example 21C, (2R)-N-((S or R)-(3-chloro-2,4-difluoro-phenyl)(trans or cis-3-cyclopropyl-cyclobutyl)-methyl)-2-methyl-3-oxopiperazine-1-carboxamide] | 0.0597
C[C@@H]1C(=O)NCCN1C(=O)NC(c1ccc(F)c(Cl)c1F)C1CC(C2CC2)C1 (single isomer, unassigned) [Example 21D, (2R)-N-((S or R)-(3-chloro-2,4-difluoro-phenyl)(cis or trans-3-cyclopropyl-cyclobutyl)-methyl)-2-methyl-3-oxopiperazine-1-carboxamide] | 0.128
C[C@@H]1C(=O)NCCN1C(=O)NC(c1ccc(F)c(Cl)c1F)C1CC2(C1)CC2(F)F (single isomer, unassigned) [Example 22A, (2R)-N-((R or S)-(3-chloro-2,4-difluoro-phenyl)(trans or cis-1,1-difluoro-spiro[2,3]-hexan-5-yl)methyl)-2-methyl-3-oxopiperazine-1-carboxamide] | 0.0029
